Assay results reported in ChEMBL document CHEMBL5038568, “Bioactive Cyclization Optimizes the Affinity of a Proprotein Convertase Subtilisin/Kexin Type 9 (PCSK9) Peptide Inhibitor” (J Med Chem, 2021).
Numbered stars: 1 amine (or outer) side, 2 acyl side, 3 side chain; on linkers, the order of the positions; unused ones are H or OH. Bridge positions count the residues as written; N and C are the ends. Peptide text beside a SMILES is read from it. X1 = N[C@@H](CS[*:1])C(=O)NC(=O)[C@H](CO)N[*:2]

Assays:
[1] = molecular target: T1, Proprotein convertase subtilisin/kexin type 9 (Homo sapiens, UniProt Q8NBP7); test: Binding affinity to human PCSK9 assessed as dissociation constant
[2] = molecular target: T1, Proprotein convertase subtilisin/kexin type 9; test: Binding affinity to full length C-terminal Avi/His6-tagged human PCSK9 expressed in Expi293 cells assessed as change in enthalpy by isothermal titration calorimetric analysis
[3] = molecular target: T1, Proprotein convertase subtilisin/kexin type 9; test: Binding affinity to full length C-terminal Avi/His6-tagged human PCSK9 expressed in Expi293 cells assessed as change in entropy by isothermal titration calorimetric analysis
[4] = molecular target: T1, Proprotein convertase subtilisin/kexin type 9; test: Binding affinity to full length C-terminal Avi/His6-tagged human PCSK9 expressed in Expi293 cells assessed as dissociation rate constant (Koff) by surface plasmon resonance assay
HepG2 = test: Cytotoxicity against human HepG2 cells assessed as reduction in cell viability at 10 uM incubated for 48 hrs by MTT assay; type: toxicity, cell-based; conditions: hepg2, 48 h
[5] = molecular target: T1, Proprotein convertase subtilisin/kexin type 9; test: Binding affinity to full length C-terminal Avi/His6-tagged human PCSK9 expressed in Expi293 cells assessed as equilibrium dissociation constant by surface plasmon resonance assay
[6] = molecular target: T1, Proprotein convertase subtilisin/kexin type 9; test: Inhibition of tEGF-A[HA] binding to biotinylated human PCSK9 incubated for 2 hrs by ELISA based competitive binding assay
[7] = molecular target: T1, Proprotein convertase subtilisin/kexin type 9; test: Inhibition of PCSK9 in human HepG2 cells assessed as restoration of surface LDLR level at 50 nM incubated for 2 hrs by Western blot analysis (Rvb= 37.5 +/- 13.9%); type: cell-based; set-up: scale not given: the % may be the effect or the level left
[8] = molecular target: T1, Proprotein convertase subtilisin/kexin type 9; test: Inhibition of PCSK9 in human HepG2 cells assessed as restoration of PCSK9-induced reduction in fluorescent LDL uptake at 50 nM incubated for 2 hrs by fluorescence plate reader analysis (Rvb= 46.1 +/- 5.6%); type: cell-based; set-up: scale not given: the % may be the effect or the level left

CC(C)C[C@H](NC(=O)[C@H](Cc1ccc(O)cc1)NC(=O)[C@H](CCC(=O)O)NC(=O)[C@H](CCC(=O)O)NC(=O)[C@H](Cc1c[nH]c2ccccc12)NC(=O)[C@H](CO)NC(=O)[C@@H](NC(=O)[C@H](Cc1ccccc1)NC(=O)[C@@H](NC(=O)[C@@H](N)[C@@H](C)O)C(C)C)[C@@H](C)O)C(=O)N[C@@H](CC(=O)O)C(=O)N[C@@H](Cc1c[nH]c2ccccc12)C(=O)N[C@H](C(=O)O)C(C)C
Kd [1]: 660 nM

CC(C)C[C@@H]1NC(=O)[C@H](Cc2ccc(O)cc2)NC(=O)[C@H](CCC(=O)O)NC(=O)[C@H](CCC(=O)O)NC(=O)[C@H](Cc2c[nH]c3ccccc23)NC(=O)[C@H](CO)NC(=O)[C@H]([C@@H](C)O)NC(=O)[C@H](Cc2ccccc2)NC(=O)[C@H](C(C)C)NC(=O)[C@H]([C@@H](C)O)NC(=O)[C@@H](N)CSSC[C@H](N)C(=O)NC(=O)[C@H](CO)NC(=O)[C@H](CC(N)=O)NC(=O)[C@H](CCCNC(=N)N)NC(=O)[C@@H]2CCCN2C(=O)[C@H](Cc2cnc[nH]2)NC(=O)[C@H](CC(C)C)NC(=O)[C@H](CC(N)=O)NC(=O)[C@H](CC(N)=O)NC(=O)[C@H](Cc2c[nH]c3ccccc23)NC(=O)[C@H](CC(=O)O)NC1=O (H-CTVFTSWEEYLDWNNLHPRN; linker 1-C via X1)
deltaH [2]: -37.3 kcal/mol
deltaS [3]: -89.5 cal/mol/K
K [4]: 0.02 s⁻¹
Activity (HepG2): Non-Toxic
Kd [5]: 974 nM
IC50 [6]: 1260 nM
Activity [7]: 112%
Activity [8]: 97.1%
